In the supplement of paper PMC4862054:

How the values were obtained:
Conditions in all cases: incubation time: 72 h
BT-474 [1] = experiment: normalised viability (% of control), CellTiter-Blue; higher = more viable cells (about 100 = DMSO control)
Description: (§1)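 DSRT, CellTiter-Blue viability, 72 h incubation. Signal is normalised to DMSO and benzethonium chloride controls. Value is the normalised response at dose 3.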

BT-549 = experiment: as above
Description: as §1

CAL-120 = experiment: as above
Description: as §1

CAL-148 = experiment: as above
Description: as §1

CAL-51 = experiment: as above
Description: as §1

CAL-85-1 = experiment: as above
Description: as §1

DU-4475 [2] = experiment: as above
Description: as §1

HCC1143 [3] = experiment: as above
Description: as §1

HCC1599 [4] = experiment: as above
Description: as §1

HCC1937 [5] = experiment: as above
Description: as §1

HDQ-P1 = experiment: as above
Description: as §1

Hs578T [6] = experiment: as above
Description: as §1

MDA-MB-231 = experiment: as above
Description: as §1

MDA-MB-436 [7] = experiment: as above
Description: as §1

MDA-MB-453 [8] = experiment: as above
Description: as §1

MDA-MB-468 = experiment: as above
Description: as §1

MFM-223 = experiment: as above
Description: as §1

SK-BR-3 = experiment: as above
Description: as §1

BT-474 [9] = experiment: normalised viability (% of control), CellTiter-Blue; higher = more viable cells (about 100 = DMSO control); remark: listed apart in the source
How it was run: (§2)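 Breast cancer cell lines were treated for 72 h in 384-well format and measured by CellTiter-Blue fluorescence at 560/590 nm. Results were normalised per plate to vehicle (100) and a positive kill control (0). The entry is normalised viability at a single listed concentration of the series.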

DU-4475 [10] = experiment: as above; remark: listed apart in the source
How it was run: as §2

HCC1143 [11] = experiment: as above; remark: listed apart in the source
How it was run: as §2

HCC1599 [12] = experiment: as above; remark: listed apart in the source
How it was run: as §2

HCC1937 [13] = experiment: as above; remark: listed apart in the source
How it was run: as §2

Hs578T [14] = experiment: as above; remark: listed apart in the source
How it was run: as §2

MDA-MB-436 [15] = experiment: as above; remark: listed apart in the source
How it was run: as §2

MDA-MB-453 [16] = experiment: as above; remark: listed apart in the source
How it was run: as §2

MDA-MB-453 [17] = experiment: drug sensitivity score (DSS), CellTiter-Blue viability (DSS (AUC-based score)); higher = stronger viability inhibition; extreme values may be limits of the assay
Description: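 DSRT with the CellTiter-Blue (resazurin reduction) viability readout, fluorescence 560/590 nm, 72 h incubation. Plates were normalised to DMSO and benzethonium chloride controls. DSS is computed from the area under the fitted dose-response curve (5 or 9 concentrations).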

CC(C)(C)NC(=O)[C@H]1CC[C@H]2[C@@H]3CC[C@H]4NC(=O)C=C[C@]4(C)[C@H]3CC[C@]12C [Finasteride]
Conditions | normalised viability [%]
BT-474 [1], 100 nM | 125
BT-474 [9], 10 nM | 125
BT-474 [9], 1000 nM | 111
BT-474 [9], 10000 nM | 125
BT-549, 100 nM | 107
CAL-51, 10 nM | 109
CAL-85-1, 10 nM | 97
CAL-120, 100 nM | 108
CAL-148, 10 nM | 93.2
DU-4475 [2], 10 nM | 107
DU-4475 [10], 3 nM | 97.7
DU-4475 [10], 30 nM | 106
DU-4475 [10], 100 nM | 103
HCC1143 [3], 100 nM | 107
HCC1143 [11], 10 nM | 102
HCC1143 [11], 1000 nM | 96.8
HCC1143 [11], 10000 nM | 106
HCC1599 [4], 100 nM | 106
HCC1599 [12], 10 nM | 97.1
HCC1599 [12], 1000 nM | 114
HCC1599 [12], 10000 nM | 83.4
HCC1937 [5], 100 nM | 91
HCC1937 [13], 10 nM | 107
HCC1937 [13], 1000 nM | 94.7
HCC1937 [13], 10000 nM | 106
HDQ-P1, 10 nM | 106
Hs578T [6], 100 nM | 105
Hs578T [14], 10 nM | 64.2
Hs578T [14], 1000 nM | 108
Hs578T [14], 10000 nM | 117
MDA-MB-231, 100 nM | 94.2
MDA-MB-436 [7], 100 nM | 110
MDA-MB-436 [15], 10 nM | 91
MDA-MB-436 [15], 1000 nM | 97.8
MDA-MB-436 [15], 10000 nM | 96.3
MDA-MB-453 [8], 10 nM | 103
MDA-MB-453 [16], 3 nM | 117
MDA-MB-453 [16], 30 nM | 98.2
MDA-MB-453 [16], 100 nM | 112
MDA-MB-468, 100 nM | 103
MFM-223, 100 nM | 95.1
SK-BR-3, 100 nM | 104

Conditions | drug sensitivity score
MDA-MB-453 [17] | 1.81

Nc1ccn([C@@H]2O[C@H](CO)[C@@H](O)C2(F)F)c(=O)n1 [Gemcitabine]
Conditions | normalised viability [%]
BT-474 [1], 10 nM | 101
BT-474 [9], 1 nM | 119
BT-474 [9], 100 nM | 103
BT-474 [9], 1000 nM | 101
BT-549, 10 nM | 84
CAL-51, 1 nM | 105
CAL-85-1, 1 nM | 93.2
CAL-120, 10 nM | 67.3
CAL-148, 1 nM | 106
DU-4475 [2], 1 nM | 116
DU-4475 [10], 0.3 nM | 95.1
DU-4475 [10], 3 nM | 88.3
DU-4475 [10], 10 nM | 98.2
HCC1143 [3], 10 nM | 70.7
HCC1143 [11], 1 nM | 101
HCC1143 [11], 100 nM | 49.7
HCC1143 [11], 1000 nM | 45.8
HCC1599 [4], 10 nM | 88.8
HCC1599 [12], 1 nM | 99.4
HCC1599 [12], 100 nM | 65.9
HCC1599 [12], 1000 nM | 25.4
HCC1937 [5], 10 nM | 63.7
HCC1937 [13], 1 nM | 92.3
HCC1937 [13], 100 nM | 38.8
HCC1937 [13], 1000 nM | 27.9
HDQ-P1, 1 nM | 125
Hs578T [6], 10 nM | 82.1
Hs578T [14], 1 nM | 106
Hs578T [14], 100 nM | 62.6
Hs578T [14], 1000 nM | 71.5
MDA-MB-231, 10 nM | 77.9
MDA-MB-436 [7], 10 nM | 94.3
MDA-MB-436 [15], 1 nM | 98.1
MDA-MB-436 [15], 100 nM | 53.1
MDA-MB-436 [15], 1000 nM | 52.5
MDA-MB-453 [8], 1 nM | 111
MDA-MB-453 [16], 0.3 nM | 114
MDA-MB-453 [16], 3 nM | 91.7
MDA-MB-453 [16], 10 nM | 97.9
MDA-MB-468, 10 nM | 68.9
MFM-223, 10 nM | 92.6
SK-BR-3, 10 nM | 77.4

Conditions | drug sensitivity score
MDA-MB-453 [17] | 11

CC(C)C[C@H](NC(=O)[C@@H](COC(C)(C)C)NC(=O)[C@H](Cc1ccc(O)cc1)NC(=O)[C@H](CO)NC(=O)[C@H](Cc1c[nH]c2ccccc12)NC(=O)[C@H](Cc1cnc[nH]1)NC(=O)[C@@H]1CCC(=O)N1)C(=O)N[C@@H](CCCNC(=N)N)C(=O)N1CCC[C@H]1C(=O)NNC(N)=O [Goserelin]
Conditions | normalised viability [%]
BT-474 [1], 100 nM | 115
BT-474 [9], 10 nM | 115
BT-474 [9], 1000 nM | 111
BT-474 [9], 10000 nM | 131
BT-549, 100 nM | 102
CAL-51, 10 nM | 113
CAL-85-1, 10 nM | 102
CAL-120, 100 nM | 107
CAL-148, 10 nM | 101
DU-4475 [2], 10 nM | 96.2
DU-4475 [10], 3 nM | 91.4
DU-4475 [10], 30 nM | 84
DU-4475 [10], 100 nM | 111
HCC1143 [3], 100 nM | 87.3
HCC1143 [11], 10 nM | 82.8
HCC1143 [11], 1000 nM | 95
HCC1143 [11], 10000 nM | 89
HCC1599 [4], 100 nM | 94.4
HCC1599 [12], 10 nM | 107
HCC1599 [12], 1000 nM | 83.8
HCC1599 [12], 10000 nM | 90.2
HCC1937 [5], 100 nM | 104
HCC1937 [13], 10 nM | 104
HCC1937 [13], 1000 nM | 85.1
HCC1937 [13], 10000 nM | 97.4
HDQ-P1, 10 nM | 117
Hs578T [6], 100 nM | 113
Hs578T [14], 10 nM | 105
Hs578T [14], 1000 nM | 98
Hs578T [14], 10000 nM | 104
MDA-MB-231, 100 nM | 91.8
MDA-MB-436 [7], 100 nM | 102
MDA-MB-436 [15], 10 nM | 95.6
MDA-MB-436 [15], 1000 nM | 97.3
MDA-MB-436 [15], 10000 nM | 94
MDA-MB-453 [8], 10 nM | 102
MDA-MB-453 [16], 3 nM | 115
MDA-MB-453 [16], 30 nM | 101
MDA-MB-453 [16], 100 nM | 102
MDA-MB-468, 100 nM | 101
MFM-223, 100 nM | 91.3
SK-BR-3, 100 nM | 110

Conditions | drug sensitivity score
MDA-MB-453 [17] | 0

CC(=O)[C@]1(O)Cc2c(O)c3c(c(O)c2[C@@H](O[C@H]2C[C@H](N)[C@H](O)[C@H](C)O2)C1)C(=O)c1ccccc1C3=O [Idarubicin]
Conditions | normalised viability [%]
BT-474 [1], 10 nM | 113
BT-474 [9], 1 nM | 97.3
BT-474 [9], 100 nM | 61.8
BT-474 [9], 1000 nM | 7.38
BT-549, 10 nM | 82.6
CAL-51, 1 nM | 105
CAL-85-1, 1 nM | 92.3
CAL-120, 10 nM | 70.1
CAL-148, 1 nM | 93.9
DU-4475 [2], 1 nM | 98
DU-4475 [10], 0.3 nM | 89.8
DU-4475 [10], 3 nM | 90.2
DU-4475 [10], 10 nM | 55.7
HCC1143 [3], 10 nM | 103
HCC1143 [11], 1 nM | 96
HCC1143 [11], 100 nM | 61
HCC1143 [11], 1000 nM | 30.1
HCC1599 [4], 10 nM | 97.2
HCC1599 [12], 1 nM | 111
HCC1599 [12], 100 nM | 102
HCC1599 [12], 1000 nM | 49.2
HCC1937 [5], 10 nM | 47.2
HCC1937 [13], 1 nM | 90.3
HCC1937 [13], 100 nM | 22.1
HCC1937 [13], 1000 nM | 21.3
HDQ-P1, 1 nM | 113
Hs578T [6], 10 nM | 72.8
Hs578T [14], 1 nM | 107
Hs578T [14], 100 nM | 57.1
Hs578T [14], 1000 nM | 5.7
MDA-MB-231, 10 nM | 102
MDA-MB-436 [7], 10 nM | 106
MDA-MB-436 [15], 1 nM | 113
MDA-MB-436 [15], 100 nM | 57.5
MDA-MB-436 [15], 1000 nM | 18.8
MDA-MB-453 [8], 1 nM | 98
MDA-MB-453 [16], 0.3 nM | 108
MDA-MB-453 [16], 3 nM | 98.4
MDA-MB-453 [16], 10 nM | 100
MDA-MB-468, 10 nM | 73.3
MFM-223, 10 nM | 103
SK-BR-3, 10 nM | 67

Conditions | drug sensitivity score
MDA-MB-453 [17] | 4.55
